From US12404289B2 (Gilead Sciences, Inc., priority 2020, dated 2025)

The molecules below were run on Respiratory syncytial virus (RSV) strain A2 (assay: RSV antiviral assay (HEp-2, 96 well)). Conditions: human respiratory syncytial virus, HEp-2, 96 h, read-out: EC50 RSV HEP2 96, HEp-2 cells, RSV A2, MOI=4, 4 days, 96 well; Table 3.
Assay type: cell-based
With `CCOC(=O)[C@H](C)NP(=O)(OC[C@H]1O[C@@](C#N)(c2ccc3c(N)ncnn23)[C@H](O)[C@@H]1O)Oc1ccc(C(C)C)cc1` (stereo partly drawn) [Example 63a] the EC50 was 0.104 µM. In the case of `CCC(CC)COC(=O)[C@H](C)NP(=O)(OC[C@H]1O[C@@](C#N)(c2ccc3c(N)ncnn23)[C@H](O)[C@@H]1O)Oc1ccc2ccccc2c1` (single isomer, unassigned) [Intermediate S3-a], the EC50 is reported as 0.0283 µM. Molecule `C[C@H](NP(=O)(OC[C@H]1O[C@@](C#N)(c2ccc3c(N)ncnn23)[C@H](O)[C@@H]1O)Oc1ccc(C(C)(C)C)cc1)C(=O)O[C@H]1CC[C@H](C(F)(F)F)CC1` (single isomer, unassigned) [Example 84a] has an EC50 of 0.185 µM. Molecule `CCC(CC)COC(=O)[C@H](C)NP(=O)(OC[C@H]1O[C@@](C#N)(c2ccc3c(N)ncnn23)[C@H](O)[C@@H]1O)Oc1cccc(C(C)(C)C)c1` (stereo partly drawn) [Example 68a] has an EC50 of 0.0608 µM. For `CCOCCOCCOC(=O)[C@H](C)NP(=O)(OC[C@H]1O[C@@](C#N)(c2ccc3c(N)ncnn23)[C@H](OC(=O)C(C)C)[C@@H]1OC(=O)C(C)C)Oc1ccc(C(C)(C)C)cc1` (stereo partly drawn) [Example 115, (2R,3R,4R,5R)-2-(4-aminopyrrolo[2,1-f][1,2,4]triazin-7-yl)-5-((((4-(tert-butyl)phenoxy)(((S)-1-(2-(2-ethoxyethoxy)ethoxy)-1-oxopropan-2-yl)amino)phosphoryl)oxy)methyl)-2-cyanotetrahydrofuran-3,4-diyl bis(2-methylpropanoate)], the EC50 was 0.0626 µM. `CCC(=O)O[C@H]1[C@@H](OC(=O)CC)[C@](C#N)(c2ccc3c(N)ncnn23)O[C@@H]1COP(=O)(N[C@@H](C)C(=O)OCC(CC)CC)Oc1ccc(C(C)(C)C)cc1` (stereo partly drawn) [Example 110, (2R,3R,4R,5R)-2-(4-aminopyrrolo[2,1-f][1,2,4]triazin-7-yl)-5-((((4-(tert-butyl)phenoxy)(((S)-1-(2-ethylbutoxy)-1-oxopropan-2-yl)amino)phosphoryl)oxy)methyl)-2-cyanotetrahydrofuran-3,4-diyl Dipropionate] gave an EC50 of 0.0576 µM. `CCCCCCOC(=O)[C@H](C)NP(=O)(OC[C@H]1O[C@@](C#N)(c2ccc3c(N)ncnn23)[C@H](OC(=O)C(C)C)[C@@H]1OC(=O)C(C)C)Oc1ccc(C(C)(C)C)cc1` (stereo partly drawn) [Example 125, (2R,3R,4R,5R)-2-(4-aminopyrrolo[2,1-f][1,2,4]triazin-7-yl)-5-((((4-(tert-butyl)phenoxy)(((S)-1-(hexyloxy)-1-oxopropan-2-yl)amino)phosphoryl)oxy)methyl)-2-cyanotetrahydrofuran-3,4-diyl bis(2-methylpropanoate)] gave an EC50 of 0.0211 µM. `CCOC(=O)O[C@H]1[C@@H](OC(=O)OCC)[C@](C#N)(c2ccc3c(N)ncnn23)O[C@@H]1CO[P@@](=O)(N[C@@H](C)C(=O)OCC(CC)CC)Oc1ccccc1` [Example 127, 2-ethylbutyl ((S)-(((2R,3R,4R,5R)-5-(4-aminopyrrolo[2,1-f][1,2,4]triazin-7-yl)-5-cyano-3,4-bis((ethoxycarbonyl)oxy)tetrahydrofuran-2-yl)methoxy)(phenoxy)phosphoryl)-L-alaninate] was tested, and the EC50 was 0.0341 µM. `CCCCCCOC(=O)[C@H](Cc1ccccc1)NP(=O)(OC[C@H]1O[C@@](C#N)(c2ccc3c(N)ncnn23)[C@H](OC(=O)C(C)C)[C@@H]1OC(=O)C(C)C)Oc1ccc(C(C)(C)C)cc1` (stereo partly drawn) [Example 123, (2R,3R,4R,5R)-2-(4-aminopyrrolo[2,1-f][1,2,4]triazin-7-yl)-5-((((4-(tert-butyl)phenoxy)(((S)-1-(hexyloxy)-1-oxo-3-phenylpropan-2-yl)amino)phosphoryl)oxy)methyl)-2-cyanotetrahydrofuran-3,4-diyl bis(2-methylpropanoate)] showed an EC50 of 0.0637 µM. Molecule `C[C@H](NP(=O)(OC[C@H]1O[C@@](C#N)(c2ccc3c(N)ncnn23)[C@H](O)[C@@H]1O)Oc1ccccc1)C(=O)OCCC(C)(C)C` (stereo partly drawn) [Intermediate P8a, 3,3-dimethylbutyl ((((2R,3S,4R,5R)-5-(4-aminopyrrolo[2,1-f][1,2,4]triazin-7-yl)-5-cyano-3,4-dihydroxytetrahydrofuran-2-yl)methoxy)(phenoxy)phosphoryl)-L-alaninate] has an EC50 of 0.0203 µM. `CCC(CC)COC(=O)[C@H](C)NP(=O)(OC[C@H]1O[C@@](C#N)(c2ccc3c(N)ncnn23)[C@H](O)[C@@H]1O)Oc1ccc(C[C@H](NC(=O)OCc2ccccc2)C(=O)OCCC(C)C)cc1` (stereo partly drawn) [Example 71, isopentyl (2S)-3-[4-[[(2R,3S,4R,5R)-5-(4-aminopyrrolo[2,1-f][1,2,4]triazin-7-yl)-5-cyano-3,4-dihydroxy-tetrahydrofuran-2-yl]methoxy-[[(1S)-2-(2-ethylbutoxy)-1-methyl-2-oxo-ethyl]amino]phosphoryl]oxyphenyl]-2-(benzyloxycarbonylamino)propanoate] gave an EC50 of 1.79 µM. Work on `CCOC(=O)O[C@H]1[C@@H](OC(=O)OCC)[C@](C#N)(c2ccc3c(N)ncnn23)O[C@@H]1COP(=O)(N[C@@H](C)C(=O)OCC)Oc1ccc(C(C)(C)C)cc1` (stereo partly drawn) [Example 124, ethyl ((((2R,3R,4R,5R)-5-(4-aminopyrrolo[2,1-f][1,2,4]triazin-7-yl)-5-cyano-3,4-bis((ethoxycarbonyl)oxy)tetrahydrofuran-2-yl)methoxy)(4-(tert-butyl)phenoxy)phosphoryl)-L-alaninate] yielded an EC50 of 0.0671 µM. For `CCC(=O)O[C@@H]1[C@H](OC(=O)C(N)C(C)C)[C@@H](COP(=O)(N[C@@H](C)C(=O)OCC(CC)CC)Oc2ccccc2)O[C@@]1(C#N)c1ccc2c(N)ncnn12` (stereo in doubt) [Example 88, [(2R,3R,4R,5R)-5-(4-aminopyrrolo[2,1-f][1,2,4]triazin-7-yl)-5-cyano-2-[[[[(1S)-2-(2-ethylbutoxy)-1-methyl-2-oxo-ethyl]amino]-phenoxy-phosphoryl]oxymethyl]-4-propanoyloxy-tetrahydrofuran-3-yl] (2R)-2-amino-3-methyl-butanoate], the EC50 was 0.0214 µM. Work on `CCC(CC)COC(=O)[C@H](C)NP(=O)(OC[C@H]1O[C@@](C#N)(c2ccc3c(N)ncnn23)[C@H](OC(=O)C(C)C)[C@@H]1OC(=O)C(C)C)Oc1ccc(C[C@H](NC(=O)OCc2ccccc2)C(=O)OCCC(C)C)cc1` (stereo partly drawn) [Example 72, (2R,3R,4R,5R)-2-(4-aminopyrrolo[2,1-f][1,2,4]triazin-7-yl)-5-((((4-((S)-2-(((benzyloxy)carbonyl)amino)-3-(isopentyloxy)-3-oxopropyl)phenoxy)(((S)-1-(2-ethylbutoxy)-1-oxopropan-2-yl)amino)phosphoryl)oxy)methyl)-2-cyanotetrahydrofuran-3,4-diyl bis(2-methylpropanoate)] yielded an EC50 of 0.556 µM. With `COC(C)(C)CCOC(=O)[C@H](C)NP(=O)(OC[C@H]1O[C@@](C#N)(c2ccc3c(N)ncnn23)[C@H](O)[C@@H]1O)Oc1ccccc1` (stereo partly drawn) [Example 75, (3-methoxy-3-methyl-butyl) (2S)-2-[[[(2R,3S,4R,5R)-5-(4-aminopyrrolo[2,1-f][1,2,4]triazin-7-yl)-5-cyano-3,4-dihydroxy-tetrahydrofuran-2-yl]methoxy-phenoxy-phosphoryl]amino]propanoate] the EC50 was 0.289 µM. `CC(C)C(=O)O[C@H]1[C@@H](OC(=O)C(C)C)[C@](C#N)(c2ccc3c(N)ncnn23)O[C@@H]1COP(=O)(N[C@@H](C)C(=O)O[C@H]1CC[C@H](C(F)(F)F)CC1)Oc1ccc(C(C)(C)C)cc1` (single isomer, unassigned) [Example 85a] gave an EC50 of 0.0627 µM. `COC(C)(C)CCOC(=O)[C@H](C)NP(=O)(OC[C@H]1O[C@@](C#N)(c2ccc3c(N)ncnn23)[C@H](OC(=O)C(C)C)[C@@H]1OC(=O)C(C)C)Oc1ccccc1` (stereo partly drawn) [Example 76, [(2R,3R,4R,5R)-5-(4-aminopyrrolo[2,1-f][1,2,4]triazin-7-yl)-5-cyano-2-[[[[(1S)-2-(3-methoxy-3-methyl-butoxy)-1-methyl-2-oxo-ethyl]amino]-phenoxy-phosphoryl]oxymethyl]-4-(2-methylpropanoyloxy)tetrahydrofuran-3-yl] 2-methylpropanoate] gave an EC50 of 0.0292 µM. Molecule `CCOC(=O)[C@H](C)NP(=O)(OC[C@H]1O[C@@](C#N)(c2ccc3c(N)ncnn23)[C@H](OC(=O)C(C)C)[C@@H]1OC(=O)C(C)C)Oc1ccc(C(C)C)cc1` (stereo partly drawn) [Example 64, [(2R,3R,4R,5R)-5-(4-aminopyrrolo[2,1-f][1,2,4]triazin-7-yl)-5-cyano-2-[[[[(1S)-2-ethoxy-1-methyl-2-oxo-ethyl]amino]-(4-isopropylphenoxy)phosphoryl]-oxymethyl]-4-(2-methylpropanoyloxy)tetrahydrofuran-3-yl] 2-methylpropanoate] has an EC50 of 0.0579 µM.

Same assay, conditions: read-out: EC50 RSV HEP2 96; HEp-2 cells, RSV A2, MOI=4, 4 days, 96 well; Table 3
For `C[C@H](NP(=O)(OC[C@H]1O[C@@](C#N)(c2ccc3c(N)ncnn23)[C@H](O)[C@@H]1O)Oc1ccc(C(C)(C)C)cc1)C(=O)O[C@H]1CC[C@H](C(F)(F)F)CC1` (single isomer, unassigned) [Example 84b], the EC50 was 0.186 µM. In the case of `CCC(CC)COC(=O)[C@H](C)NP(=O)(OC[C@H]1O[C@@](C#N)(c2ccc3c(N)ncnn23)[C@H](O)[C@@H]1O)Oc1cccc(C(C)(C)C)c1` (stereo partly drawn) [Example 68b], the EC50 is reported as 0.0344 µM. With `CCC(CC)COC(=O)[C@H](C)NP(=O)(OC[C@H]1O[C@@](C#N)(c2ccc3c(N)ncnn23)[C@H](OC(=O)C(C)C)[C@@H]1OC(=O)C(C)C)Oc1ccc2ccccc2c1` (stereo partly drawn) [Example 69b, [(2R,3R,4R,5R)-5-(4-aminopyrrolo[2,1-f][1,2,4]triazin-7-yl)-5-cyano-2-[[[[(1S)-2-(2-ethylbutoxy)-1-methyl-2-oxo-ethyl]amino]-(2-naphthyloxy)phosphoryl]oxymethyl]-4-(2-methylpropanoyloxy)tetrahydrofuran-3-yl] 2-methylpropanoate] the EC50 was 0.0369 µM. With `C[C@H](NP(=O)(OC[C@H]1O[C@@](C#N)(c2ccc3c(N)ncnn23)[C@H](O)[C@@H]1O)Oc1cccc2ccccc12)C(=O)OC1CCC1` (single isomer, unassigned) [Intermediate P7a-1] the EC50 was 0.224 µM. Molecule `CC(C)C(=O)O[C@H]1[C@@H](OC(=O)C(C)C)[C@](C#N)(c2ccc3c(N)ncnn23)O[C@@H]1COP(=O)(N[C@@H](C)C(=O)OCCC(C)(C)C)Oc1ccccc1` (single isomer, unassigned) [Example 56b] has an EC50 of 0.0747 µM. Molecule `CC(C)C(=O)O[C@H]1[C@@H](OC(=O)C(C)C)[C@](C#N)(c2ccc3c(N)ncnn23)O[C@@H]1COP(=O)(N[C@@H](C)C(=O)OC1CCC1)Oc1ccc(C2CC2)cc1` (stereo partly drawn) [Example 52b] has an EC50 of 0.0254 µM.
